According to ChEMBL document CHEMBL1201862, “PubChem BioAssay data set” (2004):
Several values for one entry are separate records, joined by “and”; a condition that tells them apart may be missing. Equal entries are not always repeated.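 Five compound concentrations were applied to cells in 96-well plates for 48 hours; endpoints were derived by simple linear interpolation of the resulting dose-response curve. GI50 marks 50% less growth.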 Activity calls are given as the source filed them. Cut-off read from the data, not from the text of the source: active = GI50 up to about 1.1 µM and inactive = higher.

Key:
Experiment in all cases: NCI tumour cell line growth inhibition, 48 h
SNB-75 = test system: SNB-75
HL-60 = test system: HL-60
UO-31 = test system: UO-31
SK-OV-3 = test system: SK-OV-3
NCI-H23 = test system: NCI-H23
SF-268 = test system: SF-268
HCT-15 = test system: HCT-15
OVCAR-4 = test system: OVCAR-4
NCI/ADR-RES = test system: NCI/ADR-RES
HCC 2998 = test system: HCC 2998
M14 = test system: M14
ACHN = test system: ACHN
HOP-92 = test system: HOP-92
K562 = test system: K562
U-251 = test system: U-251
SN12C = test system: SN12C
MDA-MB-435 = test system: MDA-MB-435
CAKI-1 = test system: CAKI-1
KM12 = test system: KM12
RXF 393 = test system: RXF 393

Structure (SMILES)	GI50 (SNB-75)	GI50 (HL-60)	GI50 (UO-31)	GI50 (SK-OV-3)	GI50 (NCI-H23)	GI50 (SF-268)	GI50 (HCT-15)	GI50 (OVCAR-4)	GI50 (NCI/ADR-RES)	GI50 (HCC 2998)	GI50 (M14)	GI50 (ACHN)	GI50 (HOP-92)	GI50 (K562)	GI50 (U-251)	GI50 (SN12C)	GI50 (MDA-MB-435)	GI50 (CAKI-1)	GI50 (KM12)	GI50 (RXF 393)
CC(=O)OC1CC2C(=O)C(=O)C1(C)C2(C)C (centres undefined)	> 100 µM (inactive)	> 10 µM (inactive)	> 100 µM (inactive)	> 100 µM (inactive)	> 100 µM (inactive)	> 100 µM (inactive)	> 100 µM	> 100 µM (inactive)	> 100 µM (inactive)	> 100 µM (inactive)	> 100 µM (inactive)	> 100 µM (inactive)	56.6 µM (inactive)	> 100 µM (inactive)	> 100 µM (inactive)	> 100 µM (inactive)	> 100 µM (inactive)			
CC(C)C1(Cl)CCC2C3(C)CCCC(C)(C(=O)O)C3CC(Cl)C2(Cl)C1Cl (centres undefined)		22.3 µM (inactive)	32.1 µM (inactive)		54.2 µM (inactive)	45 µM (inactive)	36.6 µM	24.8 µM (inactive)	32.5 µM (inactive)	27.4 µM (inactive)	23.1 µM (inactive)	43.2 µM (inactive)	37.4 µM (inactive)	24.3 µM (inactive)	20.7 µM (inactive)	39.2 µM (inactive)	25.9 µM (inactive)	43 µM (inactive)	18.2 µM (inactive)	
CC1S/C(=N/c2nnc(-c3ccccc3)o2)NC1=O (centres undefined)		36.7 µM (inactive)	30.2 µM (inactive)		94.8 µM (inactive)	34.5 µM (inactive)	30.4 µM	31.2 µM (inactive)	36.6 µM (inactive)		21.5 µM (inactive)	46.5 µM (inactive)	> 100 µM (inactive)	48 µM (inactive)	26.6 µM (inactive)	36.1 µM (inactive)	39.1 µM (inactive)	> 100 µM (inactive)	46.1 µM (inactive)	61.7 µM (inactive)
OC1(c2ccc(-c3ccccc3)cc2)c2ccccc2C2=NCCN21 (centres undefined)	19.3 µM (inactive)	33.7 µM (inactive)	30.6 µM (inactive)	86.3 µM (inactive)	20.1 µM (inactive)	29.6 µM (inactive)	39.9 µM	56.8 µM (inactive)	29.2 µM (inactive)	19.1 µM (inactive)		20.6 µM (inactive)	50.4 µM (inactive)	70.5 µM (inactive)	37.7 µM (inactive)	> 100 µM (inactive)	32.2 µM (inactive)	50.6 µM (inactive)	22.9 µM (inactive)	
O=c1[nH]c(=O)n(COC(CO)CO)cc1-c1ccccc1	> 100 µM (inactive)	> 100 µM (inactive)	> 100 µM (inactive)	> 100 µM (inactive)	> 100 µM (inactive)	> 100 µM (inactive)	> 100 µM	> 100 µM (inactive)	> 100 µM (inactive)	> 100 µM (inactive)	> 100 µM (inactive)	> 100 µM (inactive)	> 100 µM (inactive)	> 100 µM (inactive)	> 100 µM (inactive)	> 100 µM (inactive)	> 100 µM (inactive)	> 100 µM (inactive)	> 100 µM (inactive)	
Cc1c2cccc-2c2cc(O)c3ccccc3c2n1-c1ccc(N(C)C)cc1	4.06 µM (inactive)	19.9 µM (inactive)	11.5 µM (inactive)	15.8 µM (inactive)	4.28 µM (inactive)	15.9 µM (inactive)	5.37 µM	3.37 µM (inactive)	14.6 µM (inactive)	13 µM (inactive)	14.5 µM (inactive)	12.4 µM (inactive)	2.51 µM (inactive)	6.81 µM (inactive)	13.2 µM (inactive)	16.1 µM (inactive)	13.1 µM (inactive)	16 µM (inactive)	6.82 µM (inactive)	
COc1cc(-c2oc3c(OC)c(OC)cc(O)c3c(=O)c2OC)ccc1O [TERNATIN]		1.24 µM (inactive)		1.17 µM (inactive) and 2.19 µM (inactive)			4.54 µM and 6.24 µM		38.8 µM (inactive)					27.5 µM (inactive)			10.6 µM (inactive)	7 µM (inactive)		6.18 µM (inactive) and 3.87 µM (inactive)
Cc1cc2sc(C)[n+](CCCOS(=O)(=O)[O-])c2cc1C	> 100 µM (inactive)	> 100 µM (inactive)	> 100 µM (inactive)	> 100 µM (inactive)	> 100 µM (inactive)	62.5 µM (inactive)	> 100 µM	> 100 µM (inactive)	> 100 µM (inactive)		> 100 µM (inactive)	> 100 µM (inactive)	> 100 µM (inactive)	63.4 µM (inactive)	> 100 µM (inactive)	> 100 µM (inactive)	> 100 µM (inactive)	> 100 µM (inactive)	> 100 µM (inactive)	> 100 µM (inactive)
Cc1[nH]c2ccccc2c1-c1cc(-c2cc(-c3c(C)[nH]c4ccccc34)nc(N)n2)nc(N)n1		> 100 µM (inactive)	14.9 µM (inactive)	> 100 µM (inactive)	> 100 µM (inactive)	> 100 µM (inactive)	> 100 µM	> 100 µM (inactive)	> 100 µM (inactive)		> 100 µM (inactive)	> 100 µM (inactive)	> 100 µM (inactive)	> 100 µM (inactive)	> 100 µM (inactive)	> 100 µM (inactive)	> 100 µM (inactive)	> 100 µM (inactive)	> 100 µM (inactive)	
[N-]=[N+]=NCN1C(=O)C2C3C=CC(C2C1=O)C1C2C(=O)N(CN=[N+]=[N-])C(=O)C2C31 (centres undefined)			> 100 µM (inactive)		> 100 µM (inactive)	> 100 µM (inactive)	> 100 µM		> 100 µM (inactive)	11.7 µM (inactive)	> 100 µM (inactive)	> 100 µM (inactive)	12.5 µM (inactive)	> 100 µM (inactive)		> 100 µM (inactive)	> 100 µM (inactive)	> 100 µM (inactive)	> 100 µM (inactive)	
CCOC(=O)CCCNC(=O)CCCCC(=O)N(C)C		> 100 µM (inactive)	> 100 µM (inactive)	> 100 µM (inactive)	> 100 µM (inactive)	> 100 µM (inactive)	> 100 µM		> 100 µM (inactive)	> 100 µM (inactive)	> 100 µM (inactive)	> 100 µM (inactive)	> 100 µM (inactive)	> 100 µM (inactive)	> 100 µM (inactive)	> 100 µM (inactive)	> 100 µM (inactive)	> 100 µM (inactive)	> 100 µM (inactive)	
O=C1OS2(OC(=O)c3cccc4cccc2c34)c2ccccc21 (centres undefined)		> 100 µM (inactive)	> 100 µM (inactive)		> 100 µM (inactive)	> 100 µM (inactive)	> 100 µM	> 100 µM (inactive)	> 100 µM (inactive)		> 100 µM (inactive)	> 100 µM (inactive)	> 100 µM (inactive)	> 100 µM (inactive)	> 100 µM (inactive)	> 100 µM (inactive)	> 100 µM (inactive)	> 100 µM (inactive)	> 100 µM (inactive)	> 100 µM (inactive)
